Read-outs that look alike come from different tables or passages of the source.
Columns and labels:
Format in all cases: in vivo
PANDI = test: Herbicidal activity, upland test, pre-emergence
Description: (§1) The sterilized sandy loam soil is filled in test pot having a surface area of 348 cm^2 for upland test conditions or 115 cm^2 for paddy test species were planted in furrows.
(§2) For the pre-emergent tests, were sprayed on the soil one day after planting test compound in a mixture of acetone and 7 ml of the water containing up to 0.1% Tween 20.
(§3) The concentration of the test compound in solution was varied to give a range of application rates, generally 4.0 kg/ha and submultiples thereof. The pots were placed in a greenhouse and watered regularly at the soil surface for 21 days and herbicidal effects were visually rated by a percent control.
(§4) The herbicidal activity data were taken visually by percent control, wherein 0 signifies no herbicidal effect and 100 signifies complete kill.

ZEAMX = test: Herbicidal activity, upland test, pre-emergence
Description: as §1, §2, §3, §4

GOSHI [1] = test: Herbicidal activity, upland test, pre-emergence
Description: as §1, §2, §3, §4

ECHOR [2] = test: Herbicidal activity, upland test, pre-emergence
Description: as §1, §2, §3, §4

ABUTH = test: Herbicidal activity, upland test, pre-emergence
Description: as §1, §2, §3, §4

GLXMX = test: Herbicidal activity, upland test, pre-emergence
Description: as §1, §2, §3, §4

AESIN = test: Herbicidal activity, upland test, pre-emergence
Description: as §1, §2, §3, §4

TRZAW [3] = test: Herbicidal activity, upland test, pre-emergence
Description: as §1, §2, §3, §4

BROJA [4] = test: Herbicidal activity, upland test, pre-emergence
Description: as §1, §2, §3, §4

DIGSA = test: Herbicidal activity, upland test, pre-emergence
Description: as §1, §2, §3, §4

ORYSA [5] = test: Herbicidal activity, upland test, pre-emergence
Description: as §1, §2, §3, §4

SOLNI [6] = test: Herbicidal activity, upland test, pre-emergence
Description: as §1, §2, §3, §4

SORBI = test: Herbicidal activity, upland test, pre-emergence
Description: as §1, §2, §3, §4

GOSHI [7] = test: Herbicidal activity, upland test, post-emergence
From the text: as §1
(§5) The pots for the post-emergent tests were placed in a greenhouse and watered for 9~14 days, then the foliage of test plants was sprayed with a solution of the test compound in a mixture of acetone and water containing a small amount of Tween 20.
(§6) After spraying the plants were kept for one day, then watered regularly for 14 to 21 days, and herbicidal activity data were recorded.
as §4

ECHOR [8] = test: Herbicidal activity, upland test, post-emergence
From the text: as §1, §5, §6, §4

TRZAW [9] = test: Herbicidal activity, upland test, post-emergence
From the text: as §1, §5, §6, §4

BROJA [10] = test: Herbicidal activity, upland test, post-emergence
From the text: as §1, §5, §6, §4

ORYSA [11] = test: Herbicidal activity, upland test, post-emergence
From the text: as §1, §5, §6, §4

SOLNI [12] = test: Herbicidal activity, upland test, post-emergence
From the text: as §1, §5, §6, §4

MOOVA = test: Herbicidal activity for paddy test
Procedure, shortened: (§7)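 Pots of 115 cm^2 surface area are filled with sterilized sandy loam soil. Seeds of each paddy species are planted in furrows. Control is then rated by eye on a 0–100 % scale, where 100 means complete kill.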

ECHOR [13] = test: Herbicidal activity for paddy test
Procedure, shortened: as §7

SCPJU = test: Herbicidal activity for paddy test
Procedure, shortened: as §7

ORYSA [14] = test: Herbicidal activity for paddy test; settings: for plant injury at 2 g/ha: 0.002 kg/ha; for plant injury at 8 g/ha: 0.008 kg/ha; for plant injury at 31 g/ha: 0.031 kg/ha; for plant injury at 125 g/ha: 0.125 kg/ha; for plant injury at 500 g/ha: 0.500 kg/ha
Procedure, shortened: as §7

SAGPY = test: Herbicidal activity for paddy test
Procedure, shortened: as §7

[15] = 3 Leaf, read-out: Herbicidal activity, ORYSA (3 Leaf)
[16] = seed, read-out: Herbicidal activity, ORYSA (seed)

## CCC(=NOC)C1=C(O)CC(c2c(C)c(C)c3c(c2C)CC(C)(C)C3)CC1=O (stereo not shown) [Compound 1]
PANDI; 0.016 kg/ha
  Herbicidal activity, PANDI: 0 % inhibition
PANDI; 0.063 kg/ha
  Herbicidal activity, PANDI: 100 % inhibition
PANDI; 1.000 kg/ha
  Herbicidal activity, PANDI: 100 % inhibition
PANDI; 1.250 kg/ha
  Herbicidal activity, PANDI: 100 % inhibition
ZEAMX; 0.016 kg/ha
  Herbicidal activity, ZEAMX: 0 % inhibition
ZEAMX; 0.063 kg/ha
  Herbicidal activity, ZEAMX: 0 % inhibition
ZEAMX; 1.000 kg/ha
  Herbicidal activity, ZEAMX: 60 % inhibition
ZEAMX; 1.250 kg/ha
  Herbicidal activity, ZEAMX: 10 % inhibition
GOSHI [1]; 0.016 kg/ha
  Herbicidal activity, GOSHI: 0 % inhibition
GOSHI [1]; 0.063 kg/ha
  Herbicidal activity, GOSHI: 0 % inhibition
GOSHI [1]; 1.000 kg/ha
  Herbicidal activity, GOSHI: 0 % inhibition
GOSHI [1]; 1.250 kg/ha
  Herbicidal activity, GOSHI: 0 % inhibition
ECHOR [2]; 0.016 kg/ha
  Herbicidal activity, ECHOR: 0 % inhibition
ECHOR [2]; 0.063 kg/ha
  Herbicidal activity, ECHOR: 30 % inhibition
ECHOR [2]; 1.000 kg/ha
  Herbicidal activity, ECHOR: 100 % inhibition
ECHOR [2]; 1.250 kg/ha
  Herbicidal activity, ECHOR: 80 % inhibition
ABUTH; 0.016 kg/ha
  Herbicidal activity, ABUTH: 0 % inhibition
ABUTH; 0.063 kg/ha
  Herbicidal activity, ABUTH: 0 % inhibition
ABUTH; 1.000 kg/ha
  Herbicidal activity, ABUTH: 0 % inhibition
ABUTH; 1.250 kg/ha
  Herbicidal activity, ABUTH: 0 % inhibition
GLXMX; 0.016 kg/ha
  Herbicidal activity, GLXMX: 0 % inhibition
GLXMX; 0.063 kg/ha
  Herbicidal activity, GLXMX: 0 % inhibition
GLXMX; 1.000 kg/ha
  Herbicidal activity, GLXMX: 0 % inhibition
GLXMX; 1.250 kg/ha
  Herbicidal activity, GLXMX: 0 % inhibition
AESIN; 0.016 kg/ha
  Herbicidal activity, AESIN: 0 % inhibition
AESIN; 0.063 kg/ha
  Herbicidal activity, AESIN: 0 % inhibition
AESIN; 1.000 kg/ha
  Herbicidal activity, AESIN: 0 % inhibition
AESIN; 1.250 kg/ha
  Herbicidal activity, AESIN: 0 % inhibition
TRZAW [3]; 0.016 kg/ha
  Herbicidal activity, TRZAW: 0 % inhibition
TRZAW [3]; 0.063 kg/ha
  Herbicidal activity, TRZAW: 0 % inhibition
TRZAW [3]; 1.000 kg/ha
  Herbicidal activity, TRZAW: 60 % inhibition
TRZAW [3]; 1.250 kg/ha
  Herbicidal activity, TRZAW: 20 % inhibition
BROJA [4]; 0.016 kg/ha
  Herbicidal activity, BROJA: 0 % inhibition
BROJA [4]; 0.063 kg/ha
  Herbicidal activity, BROJA: 0 % inhibition
BROJA [4]; 1.000 kg/ha
  Herbicidal activity, BROJA: 100 % inhibition
BROJA [4]; 1.250 kg/ha
  Herbicidal activity, BROJA: 40 % inhibition
DIGSA; 0.016 kg/ha
  Herbicidal activity, DIGSA: 0 % inhibition
DIGSA; 0.063 kg/ha
  Herbicidal activity, DIGSA: 30 % inhibition
DIGSA; 1.000 kg/ha
  Herbicidal activity, DIGSA: 100 % inhibition
DIGSA; 1.250 kg/ha
  Herbicidal activity, DIGSA: 70 % inhibition
ORYSA [5]; 0.016 kg/ha
  Herbicidal activity, ORYSA: 0 % inhibition
ORYSA [5]; 0.063 kg/ha
  Herbicidal activity, ORYSA: 30 % inhibition
ORYSA [5]; 1.000 kg/ha
  Herbicidal activity, ORYSA: 100 % inhibition
ORYSA [5]; 1.250 kg/ha
  Herbicidal activity, ORYSA: 100 % inhibition
SOLNI [6]; 0.016 kg/ha
  Herbicidal activity, SOLNI: 0 % inhibition
SOLNI [6]; 0.063 kg/ha
  Herbicidal activity, SOLNI: 0 % inhibition
SOLNI [6]; 1.000 kg/ha
  Herbicidal activity, SOLNI: 0 % inhibition
SOLNI [6]; 1.250 kg/ha
  Herbicidal activity, SOLNI: 0 % inhibition
SORBI; 0.016 kg/ha
  Herbicidal activity, SORBI: 0 % inhibition
SORBI; 0.063 kg/ha
  Herbicidal activity, SORBI: 0 % inhibition
SORBI; 1.000 kg/ha
  Herbicidal activity, SORBI: 60 % inhibition
SORBI; 1.250 kg/ha
  Herbicidal activity, SORBI: 20 % inhibition
GOSHI [7]; 0.016 kg/ha
  Herbicidal activity, GOSHI: 0 % inhibition
GOSHI [7]; 0.063 kg/ha
  Herbicidal activity, GOSHI: 30 % inhibition
GOSHI [7]; 1.000 kg/ha
  Herbicidal activity, GOSHI: 50 % inhibition
GOSHI [7]; 1.250 kg/ha
  Herbicidal activity, GOSHI: 40 % inhibition
ECHOR [8]; 0.016 kg/ha
  Herbicidal activity, ECHOR: 60 % inhibition
ECHOR [8]; 0.063 kg/ha
  Herbicidal activity, ECHOR: 100 % inhibition
ECHOR [8]; 1.000 kg/ha
  Herbicidal activity, ECHOR: 100 % inhibition
ECHOR [8]; 1.250 kg/ha
  Herbicidal activity, ECHOR: 100 % inhibition
TRZAW [9]; 0.016 kg/ha
  Herbicidal activity, TRZAW: 30 % inhibition
TRZAW [9]; 0.063 kg/ha
  Herbicidal activity, TRZAW: 40 % inhibition
TRZAW [9]; 1.000 kg/ha
  Herbicidal activity, TRZAW: 100 % inhibition
TRZAW [9]; 1.250 kg/ha
  Herbicidal activity, TRZAW: 60 % inhibition
BROJA [10]; 0.016 kg/ha
  Herbicidal activity, BROJA: 0 % inhibition
BROJA [10]; 0.063 kg/ha
  Herbicidal activity, BROJA: 40 % inhibition
BROJA [10]; 1.000 kg/ha
  Herbicidal activity, BROJA: 100 % inhibition
BROJA [10]; 1.250 kg/ha
  Herbicidal activity, BROJA: 70 % inhibition
ORYSA [11]; 0.016 kg/ha
  Herbicidal activity, ORYSA: 0 % inhibition
ORYSA [11]; 0.063 kg/ha
  Herbicidal activity, ORYSA: 50 % inhibition
ORYSA [11]; 1.000 kg/ha
  Herbicidal activity, ORYSA: 100 % inhibition
ORYSA [11]; 1.250 kg/ha
  Herbicidal activity, ORYSA: 100 % inhibition
SOLNI [12]; 0.016 kg/ha
  Herbicidal activity, SOLNI: 0 % inhibition
SOLNI [12]; 0.063 kg/ha
  Herbicidal activity, SOLNI: 0 % inhibition
SOLNI [12]; 1.000 kg/ha
  Herbicidal activity, SOLNI: 0 % inhibition
SOLNI [12]; 1.250 kg/ha
  Herbicidal activity, SOLNI: 0 % inhibition
MOOVA; 0.002 kg/ha
  pest or weed control at 2 g/ha: 0%
MOOVA; 0.008 kg/ha
  pest or weed control at 8 g/ha: 0%
MOOVA; 0.031 kg/ha
  pest or weed control at 31 g/ha: 0%
MOOVA; 0.125 kg/ha
  pest or weed control at 125 g/ha: 0%
MOOVA; 0.500 kg/ha
  pest or weed control at 500 g/ha: 0%
ECHOR [13]; 0.002 kg/ha
  pest or weed control at 2 g/ha: 95%
ECHOR [13]; 0.008 kg/ha
  pest or weed control at 8 g/ha: 95%
ECHOR [13]; 0.031 kg/ha
  pest or weed control at 31 g/ha: 100%
ECHOR [13]; 0.125 kg/ha
  pest or weed control at 125 g/ha: 100%
ECHOR [13]; 0.500 kg/ha
  pest or weed control at 500 g/ha: 100%
SCPJU; 0.002 kg/ha
  pest or weed control at 2 g/ha: 0%
SCPJU; 0.008 kg/ha
  pest or weed control at 8 g/ha: 0%
SCPJU; 0.031 kg/ha
  pest or weed control at 31 g/ha: 0%
SCPJU; 0.125 kg/ha
  pest or weed control at 125 g/ha: 0%
SCPJU; 0.500 kg/ha
  pest or weed control at 500 g/ha: 0%
ORYSA [14]; [15]
  plant injury at 2 g/ha: 0%
  plant injury at 8 g/ha: 0%
  plant injury at 31 g/ha: 0%
  plant injury at 125 g/ha: 90%
  plant injury at 500 g/ha: 100%
ORYSA [14]; [16]
  plant injury at 2 g/ha: 0%
  plant injury at 8 g/ha: 70%
  plant injury at 31 g/ha: 100%
  plant injury at 125 g/ha: 100%
  plant injury at 500 g/ha: 100%
SAGPY; 0.002 kg/ha
  pest or weed control at 2 g/ha: 0%
SAGPY; 0.008 kg/ha
  pest or weed control at 8 g/ha: 0%
SAGPY; 0.031 kg/ha
  pest or weed control at 31 g/ha: 0%
SAGPY; 0.125 kg/ha
  pest or weed control at 125 g/ha: 0%
SAGPY; 0.500 kg/ha
  pest or weed control at 500 g/ha: 0%

Reference: patent US6096930A, “Herbicidal cyclohexane-1,3-dione derivatives and their preparation process” (Korea Research Institute of Chemical Technology, priority 1994, dated 2000)
